Assay: osmotic coefficient (dimensionless); mn = molality of the nth substance listed, in mol/kg
Conditions: 308.15 K, Liquid, Osmomat K-7000

CCCC[N+](CCCC)(CCCC)CCCC.[Br-] [tetrabutylammonium bromide] + O
Conditions | osmotic coefficient
m1 = 0.00627 | 0.9763
m1 = 0.0125 | 0.9517
m1 = 0.02562 | 0.9279
m1 = 0.03159 | 0.9191
m1 = 0.03774 | 0.9126
m1 = 0.04597 | 0.9006
m1 = 0.06502 | 0.8805
m1 = 0.07496 | 0.8725
m1 = 0.113 | 0.8403
m1 = 0.1459 | 0.8228
m1 = 0.1775 | 0.8131
m1 = 0.2126 | 0.8046
m1 = 0.2558 | 0.794
m1 = 0.3305 | 0.785

CC[N+](CC)(CC)CC.[Br-] [tetraethylammonium bromide] + O
Conditions | osmotic coefficient
m1 = 0.00966 | 0.9933
m1 = 0.01943 | 0.9737
m1 = 0.03868 | 0.9492
m1 = 0.0491 | 0.9327
m1 = 0.05837 | 0.9256
m1 = 0.07077 | 0.916
m1 = 0.09678 | 0.8994
m1 = 0.1197 | 0.8851
m1 = 0.1561 | 0.869
m1 = 0.2146 | 0.85
m1 = 0.2799 | 0.8376
m1 = 0.3398 | 0.8275

C[N+](C)(C)C.[Br-] [tetramethylammonium bromide] + O
Conditions | osmotic coefficient
m1 = 0.01285 | 0.9931
m1 = 0.02557 | 0.9742
m1 = 0.03787 | 0.9583
m1 = 0.0549 | 0.948
m1 = 0.06504 | 0.94
m1 = 0.07726 | 0.9311
m1 = 0.0956 | 0.9195
m1 = 0.1326 | 0.8936
m1 = 0.1678 | 0.8796
m1 = 0.203 | 0.8696
m1 = 0.2383 | 0.8623
m1 = 0.3083 | 0.8489

C[N+](C)(C)C.[Cl-] [tetramethylammonium chloride] + O
Conditions | osmotic coefficient
m1 = 0.01861 | 0.9937
m1 = 0.03679 | 0.9747
m1 = 0.05507 | 0.958
m1 = 0.07403 | 0.9487
m1 = 0.09359 | 0.9393
m1 = 0.1112 | 0.9297
m1 = 0.1397 | 0.9173
m1 = 0.1877 | 0.8997
m1 = 0.2352 | 0.8878
m1 = 0.284 | 0.8757
m1 = 0.333 | 0.8675

C[N+](C)(C)C.[I-] [tetramethylammonium iodide] + O
Conditions | osmotic coefficient
m1 = 0.01012 | 0.9766
m1 = 0.02006 | 0.9573
m1 = 0.0301 | 0.9365
m1 = 0.04063 | 0.9245
m1 = 0.04966 | 0.9108
m1 = 0.05912 | 0.8995
m1 = 0.07116 | 0.883
m1 = 0.1026 | 0.8569
m1 = 0.1286 | 0.8396
m1 = 0.1527 | 0.8277
m1 = 0.1802 | 0.8188
